Assay results: patent US9518976B2, “Methods for identifying or assaying for agents that increase beta-cell proliferation, insulin secretion, insulin sensitivity, glucose tolerance and decrease fat mass” (The Trustees of Columbia University in The City of New York, priority 2006, dated 2016)
Ends that are not written are not given here.

Legend:
wild type osteoblasts = test: Isoproterenol on wild type osteoblasts: mRNA levels by quantitative PCR; format: cell-based, mouse
Protocol: (§1) All gene expression analyses were performed using real time PCR. DNAse I-treated total RNA was converted to cDNA with the SuperScript III kit (Invitrogen). Real-time PCR were performed using the Taq SYBR Green Supermix with ROX (Biorad) on an MX3000 instrument (Stratagene); beta-actin amplification was used as an internal reference for each sample. All primers were from SuperArray.
It was discovered that sympathetic nervous system (SNS) activity positively regulates Esp expression in osteoblasts. […] Thus, decreasing sympathetic activity should lead to a decrease in Esp expression and thereby to an increase in the undercarboxylated, active form of osteocalcin.

[1] = osteoporotic patients, cited from earlier work
beta-cells = test: Streptozotocin (STZ) injection in WT and Esp−/− mice: survival and blood glucose; format: in vivo, mouse; details: eight days after injection
Source text: FIG. 3. Esp−/− Mice Are Protected from Obesity and Glucose Intolerance. A-F) Food intake per day (A), body weight curve (B), fat pad mass (C), serum triglyceride levels (D), GTT (E), and ITT (F) in 4-month-old WT and Esp−/− mice 3 months after GTG or vehicle injection. (G-I) Body weight curve (G), GTT (H), and ITT (I) in 3 month-old WT and Esp−/− mice fed a high fat diet for 6 weeks. (J and K) Serum insulin levels (J) and pancreatic insulin content (K) in 1-month-old WT and Esp−/− mice 8 days after STZ or vehicle injection. (L and M) Survival of mice (L) and change of blood glucose levels (M) in 1-month-old WT and Esp−/− mice during the 8 days following STZ injection. (N) Urinary glucose assays in 1-month-old WT and Esp−/− mice 8 days after STZ injection. In (A)-(F), (J), and (K): a, WT versus Esp−/−; b, WT+GTG (or STZ) versus WT+vehicle; c, WT+GTG (or STZ) versus Esp−/−+GTG (or STZ); d, Esp−/−+GTG (or STZ) versus Esp−/−+vehicle. In (G)-(I) and (M), *p<0.05 WT versus Esp−/−. In (A), (C), (D), (J), and (K), Student's t test, p<0.05 for a-d; in (B), (E)-(I), (L), and (M), ANOVA followed by post hoc analysis when number of groups >2, p % 0.001 for a-d.
For glucose tolerance test (GTT), glucose (2 g/kg body weight (BW)) was injected intraperitoneally (IP) after an overnight fast and blood glucose was monitored using blood glucose strips and the Accu-Check glucometer (Roche) at indicated times. For glucose stimulated insulin secretion test (GSIS), glucose (3 g/kg BW) was injected IP after an overnight fast; sera were collected from tails and insulin measured as described (Mauvais-Jarvis et al., 2000). For insulin tolerance test (ITT), mice were fasted for six hours, injected IP with insulin (0.2 U/kg BW) and blood glucose levels were measured at indicated times as described (Mauvais-Jarvis et al., 2002). ITT data are presented as percentage of initial blood glucose concentration. Gold thioglucose (600 mg/kg BW, USP) was injected IP after an overnight fast, mice were sacrificed 3 months later for analysis. Streptozotocin ([…] single injection, Sigma) was injected IP and blood glucose measured as described above every 2 days thereafter. After 8 days, pancreases were isolated to measure insulin content as previously described (Mauvais-Jarvis et al., 2000). Food intake was measured using metabolic cages as the daily change of food weight. Energy expenditure was measured using metabolic cages connected to a calorimeter (Columbus Instrument). Heat values (Kcal/Hr) were recorded over 2 days and reported to each mouse BW.
Whether the increase in insulin sensitivity could protect Esp−/− mice from pancreatic beta-cell failure was determined. […] Unlike STZ-treated WT mice, glucose could not be detected in urine of STZ-injected Esp−/− mice (FIG. 3N).

gamma carboxylase = target: T1, gamma carboxylase (Homo sapiens, UniProt P38435); details: thiol-specific inhibitors; cited from earlier work
T1 sequence (P38435 1-758): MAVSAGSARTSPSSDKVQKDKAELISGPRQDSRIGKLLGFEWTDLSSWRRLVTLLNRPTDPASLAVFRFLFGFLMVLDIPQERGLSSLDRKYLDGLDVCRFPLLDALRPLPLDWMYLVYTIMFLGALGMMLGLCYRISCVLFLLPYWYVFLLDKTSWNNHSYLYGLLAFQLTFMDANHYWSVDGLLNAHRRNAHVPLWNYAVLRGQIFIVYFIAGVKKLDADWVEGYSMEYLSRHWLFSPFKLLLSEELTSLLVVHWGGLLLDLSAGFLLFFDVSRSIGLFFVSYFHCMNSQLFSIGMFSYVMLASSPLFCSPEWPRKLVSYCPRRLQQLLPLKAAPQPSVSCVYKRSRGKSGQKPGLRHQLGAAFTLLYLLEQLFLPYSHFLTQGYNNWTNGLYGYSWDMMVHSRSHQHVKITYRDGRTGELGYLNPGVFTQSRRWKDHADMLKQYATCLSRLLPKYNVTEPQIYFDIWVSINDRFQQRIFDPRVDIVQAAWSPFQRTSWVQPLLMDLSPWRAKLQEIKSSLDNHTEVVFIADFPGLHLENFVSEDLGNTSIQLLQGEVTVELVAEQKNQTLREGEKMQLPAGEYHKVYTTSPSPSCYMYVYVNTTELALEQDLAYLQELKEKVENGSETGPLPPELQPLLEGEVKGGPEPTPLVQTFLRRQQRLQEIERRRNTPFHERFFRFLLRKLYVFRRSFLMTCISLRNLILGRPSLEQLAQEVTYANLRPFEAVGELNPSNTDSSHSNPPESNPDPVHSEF

Wild type adipocytes = test: Adiponectin expression in wt adipocytes treated with osteocalcin (real time PCR); format: cell-based, mouse
Source text: (§2) FIG. 7. Esp−/− Mice Are a Model of Increased Osteocalcin Bioactivity. (A-G) Comparison between 6-week-old WT, Esp−/, Ocn+/−, and Esp−/−; Ocn+/− mice. (A) Blood glucose levels. (B) Serum insulin levels. (C) Serum adiponectin levels. (D) GTT. (E) ITT. (F) GSIS test. (G) Quantification of the number of Ki67-immunoreactive cells in pancreatic islets. […] (J) Expression of Adiponectin in WT adipocytes cocultured with osteoblasts treated with warfarin or vehicle. (K) Expression of Adiponectin in WT adipocytes cultured in presence of vehicle or of 1 ng/ml of commercially available carboxylated osteocalcin (Immunotopics) or bacterially produced uncarboxylated osteocalcin. (L) Expression of Insulin and Cyclin D1 in WT islets cultured in presence of 0.3 ng/ml of bacterially produced uncarboxylated osteocalcin or vehicle. (M) Metabolic parameters and total serum osteocalcin levels in control and obese patients. (N-O) Quantification of carboxylated osteocalcin (HA-bound osteocalcin) in control and obese patients. In (A)-(C) and (G)-(L): *p<0.05 versus WT (Student's t test); in (D)-(F), °p<0.05 versus WT and *p % 0.001 versus WT (ANOVA followed by post hoc analysis).
FIG. 15. […] Wt adipocytes were treated for 4 hours with recombinant full-length osteocalcin (1-46) or a truncated form (1-36) or vehicle. Adiponectin expression was then quantified by real time PCR.
Primary adipocytes were isolated from epididymal fat pads by collagenase digestion. Briefly, minced adipose tissue was digested by 1 mg/ml collagenase P in KRP Buffer (20 mM HEPES, 120 mM NaCl, 6 mM KCl, 1.2 mM MgSO4, 1 mM CaCl2, 0.6 mM Na2HPO4, 0.4 mM NaH2PO4, 2.5 mM D-glucose, 2% BSA, pH 7.4) for 1 h at 37° C. The isolated cells were washed twice with KRP Buffer before being cultured in αMEM/1% FBS at 37° C. in 5% CO2.
as §1
Experiments were performed to test whether truncated osteocalcin was as effective as full-length uncarboxylated osteocalcin in stimulating adiponectin secretion from mouse adipocytes in vitro. Wild type adipocytes were treated for 4 hours with recombinant full-length osteocalcin (1-46) or a truncated form (1-36) (having a deletion of the […] ten amino acids from the C-terminal end) or vehicle. Adiponectin expression was then quantified by real time PCR. […]

WT adipocytes = test: Adiponectin expression in WT adipocytes cocultured with warfarin-treated osteoblasts; format: cell-based, mouse; details: adipocytes cocultured with warfarin-treated vs vehicle-treated osteoblasts (FIG. 7J)
Source text: as §2
Primary osteoblasts were prepared from calvaria of 5 day-old pups as previously described (Ducy et al., 2000a) and were cultured in αMEM/10% FBS in the presence of 100 μg/ml ascorbic acid and 5 mM β-glycerophosphate for 5 days. […]

osteoblasts = test: Osteocalcin/hydroxyapatite (HA) binding assay on medium of warfarin-treated osteoblasts; format: cell-based, mouse
Protocol: Primary osteoblasts were prepared from calvaria of 5 day-old pups as previously described (Ducy et al., 2000a) and were cultured in αMEM/10% FBS in the presence of 100 μg/ml ascorbic acid and 5 mM β-glycerophosphate for 5 days. Skin fibroblasts were isolated by collagenase digestion (0.5 mg/ml) and were cultured in […]MEM/10% FBS. Twenty-four hours before addition of primary islets (or adipocytes), osteoblasts (or fibroblasts) were placed in αMEM/1% FBS. […] After 4 h of co-culture, either in the presence or absence of (1 μm) culture inserts (Falcon) islets (or adipocytes) were collected for RNA isolation using TRIZOL (Invitrogen).
Sera from 1 month-old mice, obese patients or supernatant from warfarin-treated osteoblast cultures were added to HA slurry to achieve a final concentration of 25 mg slurry/ml. After 15 min (mouse sera, supernatant) or 30 min (human sera), HA beads were pelleted by centrifugation and HA-bound osteocalcin was eluted with 0.5M sodium phosphate buffer, pH 8.0. Osteocalcin present in eluates and initial samples was measured by IRMA. Values represent percentage of HA-bound osteocalcin over initial osteocalcin content. Hauschka, P. V., et al., Physiol Review 69, 990-1047 (1989).
To determine whether this was the case, two additional experiments were performed. […] Second, carboxylated osteocalcin and bacterially produced mouse osteocalcin, which is not carboxylated, were used in cell-based assays. […] Lastly, we studied human obese patients that are hyperinsulinemic but not diabetic (FIG. 7M).

[2] = read-out: Kd to hydroxyapatite; cited from earlier work

CC(C)NCC(O)c1ccc(O)c(O)c1 (stereo not drawn) [isoproterenol]
expression of gamma-carboxylase (ggcx) (wild type osteoblasts): did not increase
expression of osteocalcin (wild type osteoblasts): did not increase
expression of vkor (wild type osteoblasts): did not increase
increase of Esp expression (wild type osteoblasts; at 8 hours): remains steady
increase of Esp expression (wild type osteoblasts; by 4 hours): about 80%

Vitamin D
effect on undercarboxylated osteocalcin ([1]; alone or together with Vitamin K): no significant effect

CN(N=O)C(=O)N[C@H]1C(O)O[C@H](CO)[C@@H](O)[C@@H]1O (mixture of isomers) [STZ, streptozotocin]
blood glucose level of surviving mice (beta-cells; STZ-treated Esp−/− mice): ≤ 250 mg/dL
mice died (beta-cells; STZ-treated Esp−/− mice): one
mice died (beta-cells; STZ-treated WT mice): 3 of the 7
serum glucose levels of surviving mice (beta-cells; STZ-treated WT mice): above 500 mg/dl

Vitamin K
percentage mean decrease in undercarboxylated osteocalcin ([1]; four weeks of treatment, vs controls without Vitamin K): 85%

O=C([O-])c1cc[c]([Hg][OH])cc1 [p-hydroxymurcuribenzoate (pHMB), p-hydroxymurcuribenzoate]
inhibition of gamma carboxylase (gamma carboxylase): inhibited

carboxylated osteocalcin: commercially available carboxylated osteocalcin (Immunotopics) (YLYQWLGAPVPYPDPLEPRREVCELNPDCDELADHIGFQEAYRRFYGPV; ends and bridges not checked; also: carboxylated (Gla) residues, sites not given here; UniProt P02818 52-100, looked up) [reference compound]
induction of adiponectin expression (Wild type adipocytes; WT adipocytes, 1 ng/ml (FIG. 7K)): failed to induce

CCN1C(=O)C=CC1=O [N-ethylmaleimide (NEM), N-ethylmaleimide]
inhibition of gamma carboxylase (gamma carboxylase): inhibited

CC(=O)CC(c1ccccc1)c1c(O)c2ccccc2oc1=O (stereo not drawn) [warfarin]
adiponectin expression induced by treated osteoblasts (WT adipocytes): significantly higher extent
percentage of osteocalcin bound to HA (osteoblasts; conditioned medium of warfarin-treated osteoblasts vs vehicle, 50 μM, 48 h, 15 min HA incubation): marked decrease
osteocalcin secreted by osteoblasts (osteoblasts; warfarin-treated osteoblasts (vehicle 10 ng/ml)): 2 ng/mL
levels of undercarboxylated osteocalcin produced by osteoblasts (osteoblasts; warfarin-treated vs vehicle-treated osteoblasts (FIG. 7I)): elevated

1-36 fragment of uncarboxylated osteocalcin: Recombinant truncated mouse osteocalcin (1-36), ten amino acids deleted from the C-terminal end (YLGASVPSPDPLEPTREQCELNPACDELSDQYGLKT; not fully specified; ends and bridges not checked; UniProt P86546 50-85, looked up, fragment)
Adiponectin expression increase (Wild type adipocytes; wild type adipocytes treated for 4 hours, real time PCR, vs vehicle): ~1.8 fold
potency in inducing adiponectin expression in vitro (Wild type adipocytes; wt adipocytes, 4 hours (FIG. 15 legend)): as potent as native osteocalcin

B1: Osteocalcin: normal (Gla-containing) osteocalcin, small vitamin K-dependent calcium binding protein; literature data (protein, listed as Homo sapiens)
chain: MRALTLLALLALAALCIAGQAGAKPSGAESSKGAAFVSKQEGSEVVKRPRRYLYQWLGAPVPYPDPLEPRREVCELNPDCDELADHIGFQEAYRRFYGPV
Kd [2]: ~100 nM
